Results on one molecule are retold here after patent US6075054A, “Ortho-substituted benzoylguanidines, process for their preparation, their use as a medicament or diagnostic, and medicament comprising them” (Hoechst Aktiengesellschaft, priority 1997, dated 2000).

For the test, the target named is T1, Na^+ /H^+ exchanger of rabbit erythrocytes (Oryctolagus cuniculus, UniProt P23791).
T1 construct: endogenous in cells; host or cells: erythrocytes in whole blood of White New Zealand rabbits (Ivanovas) fed 2% cholesterol
Description: Inhibition of the Na^+ /H^+ exchanger of rabbit erythrocytes (amiloride-sensitive sodium influx, flame photometry). The test is classed as cell-based, rabbit (White New Zealand). The conditions noted are these: erythrocytes of rabbits on 2% cholesterol diet; hyperosmolar salt-sucrose medium, pH 7.4, 37° C. The source says: Inhibition of the Na^+ /H^+ exchanger of rabbit erythrocytes White New Zealand rabbits (Ivanovas) received a standard diet with 2% cholesterol for six weeks in order to activate the Na^+ /H^+ exchange and thus to be able to determine the Na^+ -influx into the erythrocytes via Na^+ /H^+ exchange by flame photometry. The blood was taken from the auricular arteries and rendered incoagulable by 25 IU of potassium-heparin. A part of each sample was used for the duplicate determination of the hematocrits by centrifugation. Aliquots of 100 μl in each case were used for the measurement of the Na^+ starting content of the erythrocytes.
In order to determine the amiloride-sensitive sodium influx, 100 μl of each blood sample were incubated in 5 ml in each case of a hyperosmolar salt-sucrose medium (mmol/l: 140 NaCl, 3 KCl, 150 sucrose, 0.1 ouabain, 20 tris-hydroxymethylaminomethane) at pH 7.4 and 37° C. The erythrocytes were then washed three times with ice-cold MgCl2 -ouabain solution (mmol/l: 112 MgCl2, 0.1 ouabain) and hemolyzed in 2.0 ml of distilled water. The intracellular sodium content was determined by flame photometry.
The Na^+ net influx was calculated from the difference between sodium starting values and the sodium content of the erythrocytes after incubation. […]

Where a name gives a salt, the structure may show the parent alone.

T1 sequence (P23791 whole entry): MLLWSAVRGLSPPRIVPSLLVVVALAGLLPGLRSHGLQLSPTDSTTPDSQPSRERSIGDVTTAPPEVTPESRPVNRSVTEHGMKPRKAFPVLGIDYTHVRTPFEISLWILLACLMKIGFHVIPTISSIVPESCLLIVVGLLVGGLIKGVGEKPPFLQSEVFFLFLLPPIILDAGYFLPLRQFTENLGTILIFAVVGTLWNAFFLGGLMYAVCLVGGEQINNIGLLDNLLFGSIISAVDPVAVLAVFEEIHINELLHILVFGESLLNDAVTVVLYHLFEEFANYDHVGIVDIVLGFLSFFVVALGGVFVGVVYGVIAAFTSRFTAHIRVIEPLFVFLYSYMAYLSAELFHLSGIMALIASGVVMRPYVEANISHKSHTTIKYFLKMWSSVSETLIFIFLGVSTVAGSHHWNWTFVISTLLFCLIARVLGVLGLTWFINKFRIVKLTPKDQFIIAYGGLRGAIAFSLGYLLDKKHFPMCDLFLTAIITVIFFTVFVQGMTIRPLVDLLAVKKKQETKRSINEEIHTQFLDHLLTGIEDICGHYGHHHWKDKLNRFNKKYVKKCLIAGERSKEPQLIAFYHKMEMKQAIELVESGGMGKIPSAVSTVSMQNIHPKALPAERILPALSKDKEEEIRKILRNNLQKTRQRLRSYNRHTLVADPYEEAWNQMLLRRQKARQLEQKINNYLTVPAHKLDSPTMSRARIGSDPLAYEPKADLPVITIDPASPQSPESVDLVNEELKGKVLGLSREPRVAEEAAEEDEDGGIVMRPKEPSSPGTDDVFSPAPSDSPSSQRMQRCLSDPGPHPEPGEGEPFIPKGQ

Turning to `Cc1cc(C(C)CO)c(C(F)(F)F)cc1C(=O)N=C(N)N` (racemic) [Example 1, hydrochloride], the IC50 (in general, the midpoint of a concentration-inhibition curve) worked out at 1.2 nM.
